Measured values: ChEMBL document CHEMBL5291721, “A preclinical secondary pharmacology resource illuminates target-adverse drug reaction associations of marketed drugs” (Nat Commun, 2023)

Experiments:
[1] = target: Melanocortin receptor 3 (Homo sapiens, UniProt P41968)
[2] = target: T1, Prostaglandin G/H synthase 1 (Rattus norvegicus, UniProt Q63921); assay type: functional
T1 sequence (Q63921 whole entry): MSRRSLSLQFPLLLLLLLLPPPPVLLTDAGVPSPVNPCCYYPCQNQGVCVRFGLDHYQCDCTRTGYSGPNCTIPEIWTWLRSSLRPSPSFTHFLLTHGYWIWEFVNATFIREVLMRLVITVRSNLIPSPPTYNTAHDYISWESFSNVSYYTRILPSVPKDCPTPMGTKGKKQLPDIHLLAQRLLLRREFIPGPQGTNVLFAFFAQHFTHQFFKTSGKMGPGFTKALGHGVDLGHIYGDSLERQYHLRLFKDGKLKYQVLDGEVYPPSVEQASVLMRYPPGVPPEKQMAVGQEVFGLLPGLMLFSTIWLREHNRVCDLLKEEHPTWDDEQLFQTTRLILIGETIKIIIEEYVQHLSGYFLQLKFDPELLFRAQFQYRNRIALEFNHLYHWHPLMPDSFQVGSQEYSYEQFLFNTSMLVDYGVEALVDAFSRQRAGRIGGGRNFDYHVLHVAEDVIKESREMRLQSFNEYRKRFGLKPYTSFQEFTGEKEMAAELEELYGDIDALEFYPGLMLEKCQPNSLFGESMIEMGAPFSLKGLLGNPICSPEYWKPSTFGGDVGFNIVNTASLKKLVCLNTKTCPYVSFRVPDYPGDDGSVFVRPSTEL

[3] = target: T2, 5-hydroxytryptamine receptor 1A (Homo sapiens, UniProt P08908); assay type: functional, cell-based
T2 sequence (P08908 whole entry): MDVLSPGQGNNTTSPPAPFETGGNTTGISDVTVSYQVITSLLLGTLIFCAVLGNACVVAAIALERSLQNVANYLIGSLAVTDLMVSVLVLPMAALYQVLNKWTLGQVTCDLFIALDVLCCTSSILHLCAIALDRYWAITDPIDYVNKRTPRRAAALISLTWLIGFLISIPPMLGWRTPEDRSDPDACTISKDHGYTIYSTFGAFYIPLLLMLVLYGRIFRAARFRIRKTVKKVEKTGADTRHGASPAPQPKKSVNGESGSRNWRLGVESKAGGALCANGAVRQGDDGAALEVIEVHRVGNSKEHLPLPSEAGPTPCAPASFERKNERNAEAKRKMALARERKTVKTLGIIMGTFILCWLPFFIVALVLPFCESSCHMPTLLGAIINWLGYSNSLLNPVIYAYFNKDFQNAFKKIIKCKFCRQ

[4] = target: Vasopressin V2 receptor (Homo sapiens, UniProt P30518)
[5] = target: T3, Amine oxidase [flavin-containing] A (Homo sapiens, UniProt P21397); assay type: functional
T3 sequence (P21397 whole entry): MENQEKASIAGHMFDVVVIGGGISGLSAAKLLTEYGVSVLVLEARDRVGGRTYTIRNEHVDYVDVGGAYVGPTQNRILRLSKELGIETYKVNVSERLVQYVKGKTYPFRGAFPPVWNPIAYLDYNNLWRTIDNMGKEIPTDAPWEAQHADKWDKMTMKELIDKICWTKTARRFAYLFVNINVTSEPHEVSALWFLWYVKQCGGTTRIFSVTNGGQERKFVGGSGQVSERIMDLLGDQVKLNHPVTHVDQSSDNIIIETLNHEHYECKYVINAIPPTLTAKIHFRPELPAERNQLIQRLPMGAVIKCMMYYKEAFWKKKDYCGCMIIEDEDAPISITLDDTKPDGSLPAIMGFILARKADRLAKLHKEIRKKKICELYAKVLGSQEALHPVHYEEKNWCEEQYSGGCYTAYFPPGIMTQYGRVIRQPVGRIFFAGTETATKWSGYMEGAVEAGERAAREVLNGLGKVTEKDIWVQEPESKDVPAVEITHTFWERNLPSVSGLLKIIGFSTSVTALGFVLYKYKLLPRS

[6] = target: T4, Thromboxane A2 receptor (Homo sapiens, UniProt P21731)
T4 sequence (P21731 whole entry): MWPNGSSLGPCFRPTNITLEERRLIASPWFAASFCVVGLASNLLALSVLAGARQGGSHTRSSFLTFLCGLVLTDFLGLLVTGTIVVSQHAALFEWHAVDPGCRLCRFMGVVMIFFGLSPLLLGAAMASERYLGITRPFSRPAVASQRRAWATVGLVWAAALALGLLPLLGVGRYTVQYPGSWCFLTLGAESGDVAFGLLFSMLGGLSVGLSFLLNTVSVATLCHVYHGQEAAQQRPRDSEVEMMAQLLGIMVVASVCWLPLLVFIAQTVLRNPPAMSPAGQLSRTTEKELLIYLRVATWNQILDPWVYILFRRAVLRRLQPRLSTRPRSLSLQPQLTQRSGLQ

[7] = target: Sodium-dependent noradrenaline transporter (Homo sapiens, UniProt P23975)
[8] = target: 5-hydroxytryptamine receptor 2B (Homo sapiens, UniProt P41595); assay type: functional, cell-based
[9] = target: T5, Alpha-2A adrenergic receptor (Homo sapiens, UniProt P08913); assay type: functional, cell-based
T5 sequence (P08913 whole entry): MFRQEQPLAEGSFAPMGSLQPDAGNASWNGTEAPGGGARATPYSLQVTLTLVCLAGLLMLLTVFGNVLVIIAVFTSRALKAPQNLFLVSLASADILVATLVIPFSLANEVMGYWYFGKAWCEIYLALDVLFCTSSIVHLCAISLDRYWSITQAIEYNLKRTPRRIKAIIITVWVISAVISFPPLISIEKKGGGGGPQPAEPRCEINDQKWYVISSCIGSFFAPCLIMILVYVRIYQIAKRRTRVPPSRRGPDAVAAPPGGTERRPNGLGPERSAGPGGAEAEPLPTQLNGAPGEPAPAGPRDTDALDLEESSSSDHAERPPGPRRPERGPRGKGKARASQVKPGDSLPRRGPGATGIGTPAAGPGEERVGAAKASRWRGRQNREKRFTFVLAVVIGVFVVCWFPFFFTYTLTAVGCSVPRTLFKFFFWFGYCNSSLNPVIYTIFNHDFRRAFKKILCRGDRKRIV
Further: assay procedure not described here.

Sequence of Sodium-dependent noradrenaline transporter (P23975 whole entry): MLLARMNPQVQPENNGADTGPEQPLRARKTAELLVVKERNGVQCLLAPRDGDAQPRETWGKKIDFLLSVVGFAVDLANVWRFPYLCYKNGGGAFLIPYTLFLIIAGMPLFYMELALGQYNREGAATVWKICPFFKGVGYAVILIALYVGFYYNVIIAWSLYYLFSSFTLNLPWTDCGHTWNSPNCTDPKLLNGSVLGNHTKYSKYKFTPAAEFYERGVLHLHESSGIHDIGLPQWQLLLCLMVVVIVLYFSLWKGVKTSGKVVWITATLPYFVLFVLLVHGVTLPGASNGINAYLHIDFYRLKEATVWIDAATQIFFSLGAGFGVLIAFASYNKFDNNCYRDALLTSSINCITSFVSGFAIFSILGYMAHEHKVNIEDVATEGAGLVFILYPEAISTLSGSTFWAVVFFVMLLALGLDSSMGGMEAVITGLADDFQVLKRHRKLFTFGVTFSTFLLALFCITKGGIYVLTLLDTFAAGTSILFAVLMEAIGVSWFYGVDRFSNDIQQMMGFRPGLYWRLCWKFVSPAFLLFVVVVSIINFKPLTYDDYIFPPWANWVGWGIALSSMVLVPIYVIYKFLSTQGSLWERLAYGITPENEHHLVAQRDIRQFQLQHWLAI
Sequence of 5-hydroxytryptamine receptor 2B (P41595 whole entry): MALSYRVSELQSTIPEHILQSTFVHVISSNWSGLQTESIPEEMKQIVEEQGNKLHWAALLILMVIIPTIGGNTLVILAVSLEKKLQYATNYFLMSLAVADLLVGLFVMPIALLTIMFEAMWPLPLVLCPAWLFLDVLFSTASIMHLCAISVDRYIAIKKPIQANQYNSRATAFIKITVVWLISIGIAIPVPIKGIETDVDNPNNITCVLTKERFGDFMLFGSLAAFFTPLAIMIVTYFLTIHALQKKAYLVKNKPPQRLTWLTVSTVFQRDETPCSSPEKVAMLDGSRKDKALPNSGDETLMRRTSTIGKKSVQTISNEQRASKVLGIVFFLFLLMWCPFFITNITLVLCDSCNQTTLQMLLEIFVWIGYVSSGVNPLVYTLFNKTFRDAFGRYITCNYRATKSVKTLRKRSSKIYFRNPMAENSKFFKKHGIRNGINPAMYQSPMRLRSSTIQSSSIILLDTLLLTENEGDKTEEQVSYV
Sequence of Melanocortin receptor 3 (P41968 whole entry): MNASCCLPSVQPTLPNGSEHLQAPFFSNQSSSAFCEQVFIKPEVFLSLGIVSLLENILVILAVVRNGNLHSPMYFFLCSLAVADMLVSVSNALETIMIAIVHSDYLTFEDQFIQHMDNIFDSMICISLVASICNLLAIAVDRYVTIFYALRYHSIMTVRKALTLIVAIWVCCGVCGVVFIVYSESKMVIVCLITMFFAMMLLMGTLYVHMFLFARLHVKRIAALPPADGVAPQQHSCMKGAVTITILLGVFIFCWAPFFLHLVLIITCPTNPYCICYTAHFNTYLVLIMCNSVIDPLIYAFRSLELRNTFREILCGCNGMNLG
Sequence of Vasopressin V2 receptor (P30518 whole entry): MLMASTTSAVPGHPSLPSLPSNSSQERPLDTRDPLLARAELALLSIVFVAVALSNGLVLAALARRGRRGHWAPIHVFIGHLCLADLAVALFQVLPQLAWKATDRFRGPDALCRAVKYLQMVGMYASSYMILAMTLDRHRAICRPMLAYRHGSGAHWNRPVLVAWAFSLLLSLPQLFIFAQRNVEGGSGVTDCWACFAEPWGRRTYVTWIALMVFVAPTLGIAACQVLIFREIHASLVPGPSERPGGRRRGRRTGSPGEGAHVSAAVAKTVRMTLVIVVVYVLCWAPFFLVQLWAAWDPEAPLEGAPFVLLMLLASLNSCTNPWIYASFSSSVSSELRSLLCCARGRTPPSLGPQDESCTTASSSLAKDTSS

| Structure (SMILES) | AC50 [1] [µM] | AC50 [2] [µM] | AC50 [3] [µM] | AC50 [4] [µM] | AC50 [5] [µM] | AC50 [6] [µM] | AC50 [7] [µM] | AC50 [8] [µM] | AC50 [9] [µM] |
| --- | --- | --- | --- | --- | --- | --- | --- | --- | --- |
| O=C1CN2Cc3c(ccc(Cl)c3Cl)N=C2N1 [ANAGRELIDE] | > 30 | > 30 | > 30 | > 30 | > 10 | > 30 | > 30 | > 10 | > 10 |
| [H]/N=C(\N/C(=N/[H])NCCCCCCNC(=N)NC(=N)Nc1ccc(Cl)cc1)Nc1ccc(Cl)cc1 [CHLORHEXIDINE] | 0.49 | > 10 | > 30 | 3.9 | > 10 | > 30 | 0.409 | > 30 | > 30 |
| Clc1cccc(Cl)c1N=C1NCCN1 [CLONIDINE] | > 30 | > 30 | > 10 | > 30 | > 10 | > 30 | > 10 | > 10 |  |
| CN1C[C@H](C(=O)N[C@]2(C)O[C@@]3(O)[C@@H]4CCCN4C(=O)[C@H](Cc4ccccc4)N3C2=O)C[C@@H]2c3cccc4[nH]cc(c34)C[C@H]21 [DIHYDROERGOTAMINE] | > 30 | > 30 | 0.14 | > 30 | > 10 | 13.7 | > 30 | 2.77 |  |
| CNCC[C@H](Oc1cccc2ccccc12)c1cccs1 [DULOXETINE] | 22.7 | > 30 | 8.9 | > 30 | > 10 | > 30 |  | > 10 | > 10 |

The remaining lines, values ahead:

| AC50 [1] [µM] | AC50 [2] [µM] | AC50 [3] [µM] | AC50 [4] [µM] | AC50 [5] [µM] | AC50 [6] [µM] | AC50 [7] [µM] | AC50 [8] [µM] | AC50 [9] [µM] | Structure (SMILES) |
| --- | --- | --- | --- | --- | --- | --- | --- | --- | --- |
| > 30 | > 30 | > 30 | > 30 | > 30 | 27 | 15 | > 30 | > 30 | CC(/C=C1\SC(=S)N(CC(=O)O)C1=O)=C\c1ccccc1 |
| > 30 | > 30 | > 30 | > 30 | > 30 | > 30 | > 30 | > 30 | > 30 | CC1(C)S[C@@H]2[C@H](NC(=O)[C@H](N)c3ccc(O)cc3)C(=O)N2[C@H]1C(=O)O [AMOXICILLIN] |
| > 30 | > 30 |  | > 30 | > 30 | > 30 |  | > 30 |  | CNCC[C@@H](Oc1ccccc1C)c1ccccc1 [ATOMOXETINE] |
| > 30 | > 30 | > 30 | > 30 | > 30 | 29 | > 30 | > 30 | > 30 | CCc1oc2ccccc2c1C(=O)c1cc(Br)c(O)c(Br)c1 [BENZBROMARONE] |
| > 30 | > 30 | > 30 | > 30 | > 30 | > 30 | > 30 | > 30 | > 30 | COC(=O)[C@H](c1ccccc1Cl)N1CCc2sccc2C1 [CLOPIDOGREL] |
